Experimental data reported in ChEMBL document CHEMBL1123943, “Biologically active dihydrodiol metabolites of polycyclic aromatic hydrocarbons structurally related to the potent carcinogenic hydrocarbon 7,12-dimethylbenz[a]anthracene” (1988).

Assays:
Format in all cases: functional
[1] = test system: Rattus norvegicus; assay: Tumor initiating activity measured as incidence of % aberrent cells with chromosomal aberrations, at given dose of 50 mg/kg
[2] = test system: Rattus norvegicus; assay: Tumor initiating activity measured as number of chromosomal aberrations per cell, at a dose of 50 mg/kg
[3] = species: Mus musculus; assay: Tumor initiating activity measured as percentage of mice with papillomas at a dose of 50 nmol
[4] = species: Mus musculus; assay: Tumor initiating activity measured as number of papillomas on mouse skin at a dose of 50 nmol
[5] = test system: Rattus norvegicus; assay: Tumor initiating activity measured as number of chromosomal aberrations per cell, at a dose of 25 mg/kg
[6] = test system: Rattus norvegicus; assay: Tumor initiating activity measured as incidence of % aberrent cells with chromosomal aberrations, at given dose of 25 mg/kg
[7] = species: Mus musculus; assay: Tumor initiating activity measured as percentage of mice with papillomas at a dose of 200 nmol
[8] = species: Mus musculus; assay: Tumor initiating activity measured as number of papillomas on mouse skin at a dose of 200 nmol
[9] = species: Mus musculus; assay: Tumor initiating activity measured as percentage of mice with papillomas at a dose of 100 nmol
[10] = species: Mus musculus; assay: Tumor initiating activity measured as number of papillomas on mouse skin at a dose of 100 nmol
[11] = test system: Rattus norvegicus; assay: Tumor initiating activity measured as number of chromosomal aberrations per cell, at given dose 50 mg/kg

## Cc1c2ccccc2cc2c1ccc1c(O)c(O)ccc12
[1]
  Activity: 6.6%
[2]
  aberrations per cell: 0.07 aberrations/cell

## Cc1c2cccc3c2c(c2ccc4ccccc4c12)CC3
[3]
  Activity: 100%
[4]
  papillomas per mouse: 14.7 papillomas/mouse

## Cc1c2ccccc2cc2ccc3c(O)c(O)ccc3c12
[5]
  aberrations per cell: 0.17 aberrations/cell
[6]
  Activity: 12.8%

## Cc1c2cccc3c2c(c2ccc4c(O)c(O)ccc4c12)CC3
[3]
  Activity: 100%
[4]
  papillomas per mouse: 16.5 papillomas/mouse

## c1cc2c3c(c4ccc5ccccc5c4cc3c1)CC2 [CHOLANTHRENE]
[7]
  Activity: 93%
[8]
  papillomas per mouse: 6.9 papillomas/mouse

## Cc1ccc2cc3c(ccc4ccccc43)c3c2c1CC3 [3-METHYLCHOLANTHRENE]
[9]
  Activity: 97%
[10]
  papillomas per mouse: 7.13 papillomas/mouse

## Cc1c2ccccc2c(C)c2c1ccc1c(O)c(O)ccc12
[11]
  aberrations per cell: 1.44 aberrations/cell
[5]
  aberrations per cell: 0.31 aberrations/cell
[1]
  Activity: 53%
[6]
  Activity: 22.2%

## Oc1ccc2c(ccc3c4c5c(cccc5cc32)CC4)c1O
[7]
  Activity: 80%
[8]
  papillomas per mouse: 3.32 papillomas/mouse

## Cc1ccc2cc3c(ccc4c(O)c(O)ccc43)c3c2c1CC3
[9]
  Activity: 100%
[10]
  papillomas per mouse: 7.7 papillomas/mouse

## Oc1ccc2c(ccc3cc4ccccc4cc32)c1O
[1]
  Activity: 2.2%
[2]
  aberrations per cell: 0.02 aberrations/cell
